According to patent US6914045B2, “Glycopeptide antibiotics” (Wyeth Holdings Corporation, priority 2001, dated 2005):
In brackets after ≈: the same amount, converted by molar mass.

Tests used:
Assay in all cases: in vitro antibacterial evaluation, MIC by broth dilution
Assay type in all cases: cell-based
Staphylococcus sp. = conditions: broth dilution, 18 hours at 35° C.
Method in brief: (§1)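 Broth dilution per NCCLS standard M7-A2 in Muller-Hinton II […], with an inoculum of 5×10^5 CFU/mL and antibiotic spanning 64-0.06 μg/mL. The MIC is the lowest concentration that inhibits growth of the organism.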

Streptococcus sp. = conditions: broth dilution, 18 hours at 35° C.
Method in brief: as §1

Enterococcus sp. = conditions: broth dilution, 18 hours at 35° C.
Method in brief: as §1

Escherichia coli = conditions: 18 hours at 35° C.

MIC Coagulase Negative Staphylococcus (GC 4547) (Staphylococcus sp.): 128 mg/L (≈ 89.3 µM)
MIC Coagulase Negative Staphylococcus (GC 4548) (Staphylococcus sp.): 128 mg/L (≈ 89.3 µM)
MIC Coagulase Negative Staphylococcus (GC 4549) (Staphylococcus sp.): 64 mg/L (≈ 44.6 µM)
MIC Coagulase Negative Staphylococcus (GC 4551) (Staphylococcus sp.): 128 mg/L (≈ 89.3 µM)
MIC Coagulase Negative Staphylococcus (GC 6257) (Staphylococcus sp.): 64 mg/L (≈ 44.6 µM)
MIC Staphylococcus aureus (ATCC 29213) (Staphylococcus sp.): 128 mg/L (≈ 89.3 µM)
MIC Staphylococcus aureus (GC 1131) (Staphylococcus sp.): >128 mg/L
MIC Staphylococcus aureus (GC 3051) (Staphylococcus sp.): 128 mg/L (≈ 89.3 µM)
MIC Staphylococcus aureus (GC 3053) (Staphylococcus sp.): >128 mg/L
MIC Staphylococcus aureus (GC 4541) (Staphylococcus sp.): 128 mg/L (≈ 89.3 µM)
MIC Staphylococcus aureus (GC 4542) (Staphylococcus sp.): 128 mg/L (≈ 89.3 µM)
MIC Staphylococcus aureus (GC 4544) (Staphylococcus sp.): 128 mg/L (≈ 89.3 µM)
MIC Staphylococcus aureus (GC 4545) (Staphylococcus sp.): 128 mg/L (≈ 89.3 µM)
MIC Staphylococcus aureus-SMITH (GC 4543) (Staphylococcus sp.): 128 mg/L (≈ 89.3 µM)
MIC Staphylococcus aureus (ATCC 29213) (Staphylococcus sp.; strain ATCC 29213): 128 mg/L (≈ 89.3 µM)
MIC Staphylococcus aureus (GC 1131) (Staphylococcus sp.; strain GC 1131): >128 mg/L
MIC Staphylococcus aureus (GC 3051) (Staphylococcus sp.; strain GC 3051): 128 mg/L (≈ 89.3 µM)
MIC Staphylococcus aureus (GC 3053) (Staphylococcus sp.; strain GC 3053): >128 mg/L
MIC Staphylococcus aureus (GC 4541) (Staphylococcus sp.; strain GC 4541): 128 mg/L (≈ 89.3 µM)
MIC Staphylococcus aureus (GC 4542) (Staphylococcus sp.; strain GC 4542): 128 mg/L (≈ 89.3 µM)
MIC Staphylococcus aureus-SMITH (GC 4543) (Staphylococcus sp.; strain GC 4543): 128 mg/L (≈ 89.3 µM)
MIC Staphylococcus aureus (GC 4544) (Staphylococcus sp.; strain GC 4544): 128 mg/L (≈ 89.3 µM)
MIC Staphylococcus aureus (GC 4545) (Staphylococcus sp.; strain GC 4545): 128 mg/L (≈ 89.3 µM)
MIC Coagulase Negative Staphylococcus (GC 4547) (Staphylococcus sp.; strain GC 4547): 128 mg/L (≈ 89.3 µM)
MIC Coagulase Negative Staphylococcus (GC 4548) (Staphylococcus sp.; strain GC 4548): 128 mg/L (≈ 89.3 µM)
MIC Coagulase Negative Staphylococcus (GC 4549) (Staphylococcus sp.; strain GC 4549): 64 mg/L (≈ 44.6 µM)
MIC Coagulase Negative Staphylococcus (GC 4551) (Staphylococcus sp.; strain GC 4551): 128 mg/L (≈ 89.3 µM)
MIC Coagulase Negative Staphylococcus (GC 6257) (Staphylococcus sp.; strain GC 6257): 64 mg/L (≈ 44.6 µM)
MIC Streptococcus agalactiae (GC 4564) (Streptococcus sp.): 128 mg/L (≈ 89.3 µM)
MIC Streptococcus pneumoniae (ATCC 6301) (Streptococcus sp.): 64 mg/L (≈ 44.6 µM)
MIC Streptococcus pneumoniae (GC 1894) (Streptococcus sp.): 32 mg/L (≈ 22.3 µM)
MIC Streptococcus pneumoniae (GC 4565) (Streptococcus sp.): 64 mg/L (≈ 44.6 µM)
MIC Streptococcus pyogenes (GC 4563) (Streptococcus sp.): 128 mg/L (≈ 89.3 µM)
MIC Streptococcus pneumoniae (ATCC 6301) (Streptococcus sp.; inoculum 5×10^5 CFU/mL, strain ATCC 6301): 64 mg/L (≈ 44.6 µM)
MIC Streptococcus pneumoniae (GC 1894) (Streptococcus sp.; inoculum 5×10^5 CFU/mL, strain GC 1894): 32 mg/L (≈ 22.3 µM)
MIC Streptococcus pyogenes (GC 4563) (Streptococcus sp.; inoculum 5×10^5 CFU/mL, strain GC 4563): 128 mg/L (≈ 89.3 µM)
MIC Streptococcus agalactiae (GC 4564) (Streptococcus sp.; inoculum 5×10^5 CFU/mL, strain GC 4564): 128 mg/L (≈ 89.3 µM)
MIC Streptococcus pneumoniae (GC 4565) (Streptococcus sp.; inoculum 5×10^5 CFU/mL, strain GC 4565): 64 mg/L (≈ 44.6 µM)
MIC Enterococcus avium (GC 4558) (Enterococcus sp.): >128 mg/L
MIC Enterococcus faecalis (ATCC 29212) (Enterococcus sp.): >128 mg/L
MIC Enterococcus faecalis (GC 2242) (Enterococcus sp.): >128 mg/L
MIC Enterococcus faecalis (GC 2691) (Enterococcus sp.): >128 mg/L
MIC Enterococcus faecalis (GC 3059) (Enterococcus sp.): >128 mg/L
MIC Enterococcus faecalis (GC 4552) (Enterococcus sp.): >128 mg/L
MIC Enterococcus faecalis (GC 4553) (Enterococcus sp.): >128 mg/L
MIC Enterococcus faecalis (GC 4554) (Enterococcus sp.): >128 mg/L
MIC Enterococcus faecalis (GC 6189) (Enterococcus sp.): >128 mg/L
MIC Enterococcus faecium (GC 2243) (Enterococcus sp.): >128 mg/L
MIC Enterococcus faecium (GC 4556) (Enterococcus sp.): >128 mg/L
MIC Enterococcus faecium (GC 4557) (Enterococcus sp.): 64 mg/L (≈ 44.6 µM)
MIC Enterococcus faecalis (ATCC 29212) (Enterococcus sp.; strain ATCC 29212): >128 mg/L
MIC Enterococcus faecium (GC 2243) (Enterococcus sp.; strain GC 2243): >128 mg/L
MIC Enterococcus faecalis (GC 4552) (Enterococcus sp.; strain GC 4552): >128 mg/L
MIC Enterococcus faecalis (GC 4553) (Enterococcus sp.; strain GC 4553): >128 mg/L
MIC Enterococcus faecalis (GC 4554) (Enterococcus sp.; strain GC 4554): >128 mg/L
MIC Enterococcus faecium (GC 4556) (Enterococcus sp.; strain GC 4556): >128 mg/L
MIC Enterococcus faecium (GC 4557) (Enterococcus sp.; strain GC 4557): 64 mg/L (≈ 44.6 µM)
MIC Enterococcus avium (GC 4558) (Enterococcus sp.; strain GC 4558): >128 mg/L
MIC Enterococcus faecalis (GC 6189) (Enterococcus sp.; strain GC 6189): >128 mg/L
MIC Enterococcus faecalis (GC 2242) (Enterococcus sp.; inoculum 5×10^5 CFU/mL, strain GC 2242): >128 mg/L
MIC Enterococcus faecalis (GC 2691) (Enterococcus sp.; inoculum 5×10^5 CFU/mL, strain GC 2691): >128 mg/L
MIC Enterococcus faecalis (GC 3059) (Enterococcus sp.; inoculum 5×10^5 CFU/mL, strain GC 3059): >128 mg/L
MIC Escherichia coli (ATCC 25922) (Escherichia coli): >128 mg/L
MIC Escherichia coli (GC 4559) (Escherichia coli): >128 mg/L
MIC Escherichia coli (GC 4560) (Escherichia coli): 32 mg/L (≈ 22.3 µM)
Compound: COc1ccc2cc(COC3C(OC4C(CO)OC(Oc5ccc(CC6NC(=O)C(C(C)c7ccccc7)NC(=O)CNC(=O)C(CO)NC(=O)C(CC7CNC(=N)N7C7OC(CO)C(O)C(O)C7O)NC(=O)C(CC7CNC(=N)N7)NC6=O)cc5)C(O)C4O)OC(CO)C(O)C3O)ccc2c1 (stereo not shown) [Example 245c]
MIC Staphylococcus haemolyticus (GC 4546) (Staphylococcus sp.): 128 mg/L (≈ 89.3 µM)
MIC Staphylococcus haemolyticus (GC 4546) (Staphylococcus sp.; strain GC 4546): 128 mg/L (≈ 89.3 µM)
